This is an account of results in patent US12110286B2, “Benzimidazolone derived inhibitors of BCL6” (Cancer Research Technology Limited, priority 2017, dated 2024).

Assay [1] deals with BCL6-NCOR2(SMRT) corepressor protein-protein interaction (Homo sapiens (Human), UniProt P41182). Description: NanoBRET cell assay. In kind it is cell-based. The conditions noted are these: further generated data; transfected HEK293T cells, 6 hr; read-out: NanoBRET cell pIC50 (converted). The protocol: A cellular nano-Bioluminescence Resonance Energy Transfer (nanoBRET) assay (Promega NanoBRET Nano-Glo Detection System, catalogue number N1662) was used to detect inhibition of the BCL6-NCOR2(SMRT) corepressor protein-protein interaction. DNA encoding full length BCL6 and NCOR2 were inserted into pFC32K.NanoLuc and pFC14K.HaloTag vectors (Promega) to produce C-terminal tagged fusion proteins BCL6-nanoLuc and NCOR2-HaloTag, respectively. HEK293T cells were plated (5×10^5) in T75 tissue culture flask and bulk transfected 48 hours later with Fugene 6 (Promega cat. #E2691) reagent and 18 μg total DNA plasmids encoding BCL6-nanoLuc as donor and NCOR2-HaloTag as acceptor, at a donor:acceptor DNA ratio of 1:25. At 24 hr post-transfection, HEK293T cells were collected and stored in liquid nitrogen in 90% FBS (PAN Biotech UK) and 10% DMSO. […] Frozen transfected HEK293T cells were thawed, centrifuged and freezing medium was replaced by phenol red-free OptiMEM+4% FBS (Life Technology). […] Cells were incubated for 6 hr at 37° C./5% C02 then NanoBRET furimazine substrate (Promega) was added to give a final concentration of 10 μM. After a short centrifugation the plates were read on an Envision (Perkin Elmer) plate reader equipped with a LUM/D600 Dual mirror, Lum 450/40 nm bandpass and D605 nm longpass filters, with a 0.2 sec reading to determine the BRET ratio. The % inhibition at each test concentration was calculated by normalising the BRET ratio to the appropriate high and low controls.
(In BRET a luciferase serves as donor, and the signal depends on an acceptor being close.)

For assay [2], the target named is Trx-6×His-BCL6 (human BCL6 BTB domain covering amino-acid sequence 5-129) (Homo sapiens (Human), UniProt P41182). As to the kind of experiment: HTRF in vitro assay (BCL6 / BCOR-AF633 peptide). The assay is classed as binding. The conditions noted are these: further generated data, 1 nM Trx-6×His-BCL6, 300 nM BCOR-AF633 peptide, 0.5 nM anti-6×His-Terbium cryptate; for IC50: read-out: HTRF pIC50 (converted). On the procedure:
The % inhibition at each concentration was calculated by normalising FRET ratio to the appropriate high (DMSO with all reagents) and low (DMSO without BCL6) controls.
(In TR-FRET formats the signal depends on donor and acceptor labels being close together.)

The test system of a further assay is SU-DHL-4 cells. Description: 14-day cell proliferation assay (CellTiter Glo). The assay is classed as cell-based. As to conditions: Homo sapiens, SU-DHL-4, 336 h; SU-DHL4 cells, 14 days. The protocol: 14-Day Cell Proliferation Assay
SU-DHL-4 cells were seeded in 96-well culture plates at a density of 2000 cells/well in RPMI-1640 medium (Sigma-Aldrich) supplemented with 10% FBS (Gibco). Compounds were initially dispensed into 96-well U-bottom plates using an Echo 550 acoustic dispenser (Labcyte Inc.), then diluted in RPMI-1640 medium and transferred onto the cells. Cells were treated with 8 compound concentrations in duplicate, ranging from 1 nM to 10 μM, in a final DMSO concentration of 0.1% and final volume of 100 μl. Cells were incubated with compound for 14 days, with medium changes at days 3, 7 and 10 carried out as follows: fresh 96-well cell culture plates were prepared containing 100 μl medium plus compound at the assay concentrations (white plates were used on day 10 to optimise luminescence measurement). Assay plates containing cells were vortexed to mix and cell density in one control well was counted using a Coulter Z2 cell counter (Beckman Coulter). The volume of medium containing 2000 cells in the control well was calculated and this volume of cells was transferred from every well of the assay plates to the corresponding well of the fresh plates containing compound. After 14 days, CellTiter Glo reagent (Promega) was added to the medium in each well of the assay plate at a ratio of 1:2, mixed on a plate shaker, then incubated at room temperature for 10 minutes. Luminescence was measured using an Envision plate reader (Perkin Elmer) and the relative luminescence at each compound concentration, compared to DMSO alone, was calculated. G150 were determined using a 4-parameter curve fit in Dotmatics (Bishops Stortford, UK).
For orientation: Cellular ATP, detected with luciferase, serves as a proxy for viable cell number.

The term GI50 denotes the concentration at which growth is held to half of that of the control. A low value points to greater sensitivity of the cells.

With `COCC(C)(O)CCn1c(=O)n(C)c2ccc(Nc3nc(N4CCC(C(=O)N(C)C)CC4)ncc3Cl)cc21` (centres unmarked) [Example 15i], the IC50 in assay [1] is 2190 nM. For the same compound, the “HTRF pIC50” value in assay [2] was 6.75. On to `CCC(C)(O)CCn1c(=O)n(C)c2ccc(Nc3nc(N4CCC(C(=O)N(C)C)CC4)ncc3Cl)cc21` (centres unmarked) [Example 15l], for which, in assay [1], the IC50 is 1320 nM. Moreover, the “HTRF pIC50” value in assay [2] stood at 6.63.

Take `Cc1nn(-c2ncc(Cl)c(Nc3ccc4c(c3)n(CCC(C)(C)O)c(=O)n4C)n2)c(C)c1Cl` [Example 15n]: in assay [1], the IC50 is 1820 nM. Besides, the “HTRF pIC50” value in assay [2] was 6.35. As for `Cn1c(=O)n(CCC(C)(C)O)c2cc(Nc3nc(-c4n[nH]c5ccccc45)ncc3Cl)ccc21` [Example 17a, 5-((5-chloro-2-(1H-indazol-3-yl)pyrimidin-4-yl)amino)-3-(3-hydroxy-3-methylbutyl)-1-methyl-1,3-dihydro-2H-benzo[d]imidazol-2-one], the values for the IC50 in assay [1] and in assay [2] were 1150 nM and 537 nM, respectively. With `Cn1c(=O)n(CCC(C)(C)O)c2cc(Nc3nc(-n4ncc5ccccc54)ncc3Cl)ccc21` [Example 17b, 5-((5-chloro-2-(1H-indazol-1-yl)pyrimidin-4-yl)amino)-3-(3-hydroxy-3-methylbutyl)-1-methyl-1,3-dihydro-2H-benzo[d]imidazol-2-one], the IC50 in assay [1] was 1910 nM. Besides, the “HTRF pIC50” value in assay [2] turned out to be 6.21. For `C[C@@H]1CN(c2ncc(Cl)c(Nc3ccc4c(c3)n(CCC(C)(C)O)c(=O)n4C)n2)C[C@H](C)C1(F)F` [Example 20a, 5-((5-chloro-2-((3R,5S)-4,4-difluoro-3,5-dimethylpiperidin-1-yl)pyrimidin-4-yl)amino)-3-(3-hydroxy-3-methylbutyl)-1-methyl-1,3-dihydro-2H-benzo[d]imidazol-2-one], halving of growth in the assay with SU-DHL-4 cells (GI50) required 70 nM. With `CN(C)C(=O)C1CCN(c2ncc(Cl)c(Nc3ccc4c(c3)n(CCC(C)(C)O)c(=O)n4C)n2)CC1` [Example 20c], the IC50 in assay [1] was 2140 nM. For the same compound, the “HTRF pIC50” value in assay [2] turned out to be 6.60.

Take `C[C@@H]1C[C@H](C)CN(c2ncc(Cl)c(Nc3ccc4c(c3)n(CCC(C)(C)O)c(=O)n4C)n2)C1` [Example 20e]: in the assay on SU-DHL-4 cells, the concentration for 50% growth inhibition (GI50) worked out at 350 nM. Take `C[C@@H]1CN(c2ncc(Cl)c(Nc3ccc4c(c3)n(CCC(C)(C)O)c(=O)n4C)n2)C[C@H](C2CC2)O1` [Example 21a, 5-((5-chloro-2-((2S,6R)-2-cyclopropyl-6-methylmorpholino)pyrimidin-4-yl)amino)-3-(3-hydroxy-3-methylbutyl)-1-methyl-1,3-dihydro-2H-benzo[d]imidazol-2-one]: the IC50 in assay [1] is 1350 nM; in assay [2] it was 100 nM.

In the case of `C[C@@H]1CN(c2ncc(Cl)c(Nc3ccc4c(c3)n(CCC(C)(C)O)c(=O)n4C)n2)C[C@@H](C2CC2)O1` [Example 21b, 5-((5-chloro-2-((2R,6R)-2-cyclopropyl-6-methylmorpholino)pyrimidin-4-yl)amino)-3-(3-hydroxy-3-methylbutyl)-1-methyl-1,3-dihydro-2H-benzo[d]imidazol-2-one], in assay [1], the IC50 is 1380 nM. For the same compound, the “HTRF pIC50” value in assay [2] stood at 7.01. Regarding `Cn1c(=O)n(CCC(C)(C)O)c2cc(Nc3nc(N4CCOC(C(F)(F)F)C4)ncc3Cl)ccc21` (centres unmarked) [Example 28b, 5-((5-chloro-2-(2-(trifluoromethyl)morpholino)pyrimidin-4-yl)amino)-3-(3-hydroxy-3-methylbutyl)-1-methyl-1,3-dihydro-2H-benzo[d]imidazol-2-one], in assay [1], the IC50 was 2190 nM. The “HTRF pIC50” value in assay [2] was 6.55. Regarding `Cc1cc(C)n(-c2cc(Nc3ccc4c(c3)n(CCC(C)(C)O)c(=O)n4C)c(Cl)cn2)n1` [Example 30a, 5-((5-chloro-2-(3,5-dimethyl-1H-pyrazol-1-yl)pyridin-4-yl)amino)-3-(3-hydroxy-3-methylbutyl)-1-methyl-1,3-dihydro-2H-benzo[d]imidazol-2-one], in assay [1], the IC50 was 3090 nM. Also, the “HTRF pIC50” value in assay [2] is given as 6.09. On to `Cn1c(=O)n(CCC(C)(C)O)c2cc(Nc3nc(N4CCC(C(F)(F)F)CC4)ncc3Cl)ccc21` [Example 35g, 5-((5-chloro-2-(4-(trifluoromethyl)piperidin-1-yl)pyrimidin-4-yl)amino)-3-(3-hydroxy-3-methylbutyl)-1-methyl-1,3-dihydro-2H-benzo[d]imidazol-2-one], for which, in assay [1], the IC50 is 2240 nM. The “HTRF pIC50” value in assay [2] was 6.12. As to `CC(C)(O)CCn1c(=O)n(CCC(C)(C)O)c2cc(Nc3nc(N4CC(C)(C)OC(C)(C)C4)ncc3Cl)ccc21` [Example 35k, 5-((5-chloro-2-(2,2,6,6-tetramethylmorpholino)pyrimidin-4-yl)amino)-1,3-bis(3-hydroxy-3-methylbutyl)-1,3-dihydro-2H-benzo[d]imidazol-2-one], the IC50 in assay [1] was 1480 nM. Further, the “HTRF pIC50” value in assay [2] is 6.56. For `C[C@@H]1CN(c2ncc(Cl)c(Nc3ccc4c(c3)n(CCC(C)(C)O)c(=O)n4C)n2)C[C@H](C)N1C` [Example 35l, 5-((5-chloro-2-((3S,5R)-3,4,5-trimethylpiperazin-1-yl)pyrimidin-4-yl)amino)-3-(3-hydroxy-3-methylbutyl)-1-methyl-1,3-dihydro-2H-benzo[d]imidazol-2-one], the IC50 in assay [1] is 1510 nM. Also, the “HTRF pIC50” value in assay [2] was 6.76.

For `Cn1c(=O)n(CCC(C)(C)O)c2cc(Nc3nc(N4[C@@H]5CCC[C@H]4CC5)ncc3Cl)ccc21` [Example 35m, 5-((2-((1R,5S)-8-azabicyclo[3.2.1]octan-8-yl)-5-chloropyrimidin-4-yl)amino)-3-(3-hydroxy-3-methylbutyl)-1-methyl-1,3-dihydro-2H-benzo[d]imidazol-2-one], the IC50 in assay [1] was 741 nM. For the same compound, the “HTRF pIC50” value in assay [2] is given as 6.81. In the case of `CC(C)(O)CCn1c(=O)n(CCC(C)(C)O)c2ncc(Nc3nc(N4CC(C)(C)OC(C)(C)C4)ncc3Cl)cc21` [Example 35q, 6-((5-chloro-2-(2,2,6,6-tetramethylmorpholino)pyrimidin-4-yl)amino)-1,3-bis(3-hydroxy-3-methylbutyl)-1,3-dihydro-2H-imidazo[4,5-b]pyridin-2-one], in assay [1], the IC50 is 1700 nM. Besides, in assay [2], the “HTRF pIC50” value came out at 6.63. For `Cn1c(=O)n(CCC(C)(C)O)c2cc(Nc3nc(N4C5CC6CC(C5)CC4C6)ncc3Cl)ccc21` [Example 35t, 5-((2-((1r,3r,5r,7r)-2-azaadamantan-2-yl)-5-chloropyrimidin-4-yl)amino)-3-(3-hydroxy-3-methylbutyl)-1-methyl-1,3-dihydro-2H-benzo[d]imidazol-2-one], the IC50 in assay [1] was 2340 nM. For the same compound, in assay [2], the “HTRF pIC50” value is listed as 6.46. The matching figures for `COCC1CCCN(c2ncc(Cl)c(Nc3ccc4c(c3)n(CCC(C)(C)O)c(=O)n4C)n2)C1` (centres unmarked) [Example 35v, 5-((5-chloro-2-(3-(methoxymethyl)piperidin-1-yl)pyrimidin-4-yl)amino)-3-(3-hydroxy-3-methylbutyl)-1-methyl-1,3-dihydro-2H-benzo[d]imidazol-2-one]: 2340 nM and 6.70.

For the compound `C[C@@H]1C[C@H](O)CN(c2ncc(Cl)c(Nc3ccc4c(c3)n(CCC(C)(C)O)c(=O)n4C)n2)C1` [Example 35x, 5-((5-chloro-2-((3S,5R)-3-hydroxy-5-methylpiperidin-1-yl)pyrimidin-4-yl)amino)-3-(3-hydroxy-3-methylbutyl)-1-methyl-1,3-dihydro-2H-benzo[d]imidazol-2-one], the IC50 in assay [1] was 3160 nM. Also, the “HTRF pIC50” value in assay [2] amounted to 7.01.
